Test results published in patent publication US20060122267A1, “Compositions and methods for attenuating mitochondria-mediated cell injury” (priority 2003, published 2006).
Entries after “also recorded” stand apart in the source; their conditions may differ.

Legend:
[1] = system: perfused rat hearts; assay: Langendorff isolated perfused rat heart model of ischemia-reperfusion injury; conditions: 10 μM infused during equilibration; 25 minutes global ischemia, 30 minutes reperfusion; dark
Description: Hearts were perfused in constant flow mode, with Krebs-Henseleit (KH) buffer, gassed with 95/5 O2/CO2. Following equilibration (during which S-nitroso-2-mercaptopropylglycine was infused at 10 μM final concentration), global ischemia was imposed for 25 minutes, followed by 30 minutes of reperfusion. Cardiac functional parameters were measured throughout, with a left-ventricular balloon attached to a pressure transducer. Recovery of rate pressure product (RPP, i.e., left ventricular developed pressure multiplied by heart rate) was greater in S-nitroso-2-mercaptopropylglycine treated hearts. Control hearts in these experiments were subject to dark conditions.
Rat hearts were perfused according to methods well-known in the art (Digerness, et al. (2003) J. Thorac. Cardiovasc. Surg. 125:863-871), with Krebs-Henseleit (KH) buffer, gassed with 95/5 O2/CO2. […] Cardiac functional parameters (left ventricular pressure, rate pressure product, oxygen consumption, diastolic stiffness, etc.) were measured throughout, and mitochondria were isolated at the end of the procedure. Several mitochondrial parameters are then determined including respiration, Ca^2+ loading capacity, reactive oxygen species generation, permeability transition pore opening threshold, respiratory complex activities (Brookes, et al. (2002) Methods Enzymol. 359:305-319), and protein S-nitrosation as disclosed herein.

[2] = system: isolated adult rat cardiomyocytes; assay: Mitochondrial H+ leak in cardiomyocytes (respiration divided by TMRE fluorescence) after ischemia-reperfusion; format: cell-based; conditions: doses that protect cardiomyocyte viability
Description: Cardiomyocyte respiration rate was measured with an oxygen electrode, and membrane potential with the fluorescent dye TMRE (20 nM) in a fluorimeter. H^+ leak is essentially the amount of work the respiratory chain must do to maintain a given membrane potential, and experimentally is derived by dividing respiration by TMRE fluoresence. […] All data are means±SEM, N>3.
Adult rat cardiomyocytes were prepared by collagenase perfusion according to standard methods (Dai, et al. (2001) supra), yielding ˜4×10^6 cells per heart, >80% rod-shaped and viable. Incubations were in a shaking water bath at 37° C., each utilizing 5×10^5 cells in 5 mL of the KH buffers described below. For the control, cells were incubated for 2 hours in oxygenated KH buffer (95/5 O2/CO2). For ischemia-reperfusion treatment, cells were subjected to 30 minutes in oxygenated KH buffer, 1 hour in “ischemic” KH buffer (95/5 N2/CO2, pH 6.5, no glucose), and 30 minutes in oxygenated KH buffer. […] At the end of each protocol, cell viability was assayed (Trypan blue), and mitochondrial function determined (measurement of ΔΨm with the fluorescent probe TMRE, respiration with an O2 electrode, and S-nitrosothiol content by chemiluminescence and biotin-switch.

[3] = system: mitochondrial proteins; assay: Biotin-switch analysis of mitochondrial protein S-nitrosation; format: biochemical, rat; conditions: for S-nitrosation of entire mitochondrial protein extract, comparison of NO donors: S-nitrosoglutathione 1 mM, DETA-NONOate 2 mM, ONOO- 3 additions of 100 μM, 37° C., 40 minutes
Description: Rat heart mitochondria were isolated using differential centrifugation (Tompkins, et al. (2005) Biochim. Biophys. Acta PMID: 16278076). Protein was determined by the Folin-phenol method (Lowry, et al. (1951) J. Bio. Chem. 193:265-75) against a standard curve constructed using bovine serum albumin. Mitochondrial incubations and all subsequent steps were performed in the dark. One mg of mitochondrial protein was suspended in 1 mL of mitochondrial respiration buffer (Tompkins, et al. (2005) supra) containing respiratory substrates glutamate (5 mM), malate (2.5 mM) and succinate (5 mM). […] Samples were centrifuged (5 minutes, 14,000×g), and supernatants removed. The pellets were then resuspended in 1 mL of respiration buffer, and centrifuged again. Pellets were frozen in liquid N2 for subsequent analysis. For ONOO^− treatments, 4 μL of 25 mM ONOO^− stock (100 μM final concentration) was added the cap of the reaction tube, the cap quickly closed and the tube shaken immediately. The process was then repeated twice at 30 second intervals, for a total of 3 additions. Mitochondria were then pelleted, washed, and frozen as for S-nitrosoglutathione samples. Complex I activity was assayed as the rotenone-sensitive oxidation of NADH, at 340 nm in the presence of coenzyme Q1 (Borutaite, et al. (2000) supra). Complex IV was assayed by monitoring the cyanide-sensitive first-order oxidation of reduced cytochrome c, at 550 nm according to established methods (Cleeter, et al. (1994) supra).
For biotin-switch analysis, intact mitochondrial pellets (1 mg protein solubilized in extraction buffer) or chromatography column fractions were analyzed in accordance with known methods (Jaffrey & Snyder (2001) supra). Samples were separated in duplicate on non-reducing SDS-PAGE gels; half the gel was stained with COOMASSIE® blue, and the other half blotted and probed with streptavidin-HRP and ECL™ detection (GE biosciences). Blots and stained gels were aligned, and S-nitrosated proteins excised, trypsinized, and identified by peptide mass fingerprinting. Mass spectra (MALDI-TOF) were analyzed using the MASCOT™ algorithm available on the world-wide web at matrixscience.com.

[4] = system: isolated adult rat cardiomyocytes; assay: Cardiomyocyte model of ischemia-reperfusion injury, cell viability by Trypan blue exclusion; format: cell-based
Description: Isolated adult rat cardiomyocytes were subjected to 1 hour ischemia (anoxic, glucose free medium, pH 6.5) followed by 30 minutes reoxygenation (labeled “HR”). Cell viability was assayed by Trypan blue exclusion. […] All data are means±SEM, N>3.
Adult rat cardiomyocytes were prepared by collagenase perfusion according to standard methods (Dai, et al. (2001) supra), yielding ˜4×10^6 cells per heart, >80% rod-shaped and viable. Incubations were in a shaking water bath at 37° C., each utilizing 5×10^5 cells in 5 mL of the KH buffers described below. For the control, cells were incubated for 2 hours in oxygenated KH buffer (95/5 O2/CO2). For ischemia-reperfusion treatment, cells were subjected to 30 minutes in oxygenated KH buffer, 1 hour in “ischemic” KH buffer (95/5 N2/CO2, pH 6.5, no glucose), and 30 minutes in oxygenated KH buffer. For the ischemia-reperfusion injury and test compound group of cells, ischemia-reperfusion injury was carried out as described above with test compound present during the 30 minute equilibration prior to ischemia-reperfusion and absent during ischemia. […] At the end of each protocol, cell viability was assayed (Trypan blue), and mitochondrial function determined (measurement of ΔΨm with the fluorescent probe TMRE, respiration with an O2 electrode, and S-nitrosothiol content by chemiluminescence and biotin-switch.

[5] = cited from earlier work
[6] = system: cell and organ models of ischemia-reperfusion; conditions: cited from earlier work

Structure (SMILES): CC(SN=O)C(=O)NCC(=O)O (stereo not shown)
- recovery of rate pressure product (RPP) after ischemia-reperfusion versus control hearts [1]: greater
- effect on increase in mitochondrial H+ leak induced by ischemia-reperfusion [2]: prevent large increases in H^+ leak; also recorded: protect against the large increase in proton leak
- S-nitrosation of mitochondrial proteins compared with S-nitrosoglutathione ([3]; same concentrations, 10-100 μM): much greater degree of S-nitrosation of mitochondrial proteins than did S-nitrosoglutathione
- protection of cardiomyocyte viability from ischemia-reperfusion injury ([4]; 10 μM or 20 μM, 1 hour ischemia, 30 minutes reoxygenation): dose-dependent and significant protection
- protection of cardiomyocyte viability compared with ischemic preconditioning (IPC) ([4]; higher dose, 20 μM): more effective than IPC

Structure (SMILES): CC(S)C(=O)NCC(=O)O (stereo not shown) [2-mercaptopropionylglycine, 2-Mercaptopropionylglycine]
- bioavailability ([5]; in vivo): bioavailable
- cellular and mitochondrial distribution ([5]; radioactive tracer, whole animals): readily enters cells and accumulates in mitochondria
- concentrations required to elicit protection [6]: 0.3 to 1.0 mM

Structure (SMILES): NCCN(CCN)/[N+]([O-])=N/O [DETA-NONOate]
- S-nitrosation of entire mitochondrial protein extract, comparison of NO donors [3]: S-nitrosoglutathione resulted in far more S-nitrosation than DETA-NONOate or ONOO^−

Structure (SMILES): O=NOO [ONOO^−, peroxynitrite]
- S-nitrosation of entire mitochondrial protein extract, comparison of NO donors [3]: S-nitrosoglutathione resulted in far more S-nitrosation than DETA-NONOate or ONOO^−
